By DC50 is commonly meant the midpoint of the concentration-degradation curve. As a reminder, the ΔTm is the change in melting temperature against a reference sample.

Structures are written as SMILES. Where “and” joins values, the source holds several entries; their conditions need not be identical. Equal values may be shown once. Read-outs that look alike come from different tables or passages of the source.

The target in experiment [1] is T1, PCSK9 (Homo sapiens, UniProt Q8NBP7). Description: Fluorescence polarization competition binding assay (probe: compound of Example 57). The note with it: 2 μM PCSK9, 50 nM compound of Example 57 as probe, overnight incubation; read-out: FP IC. Summed up: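 Competition fluorescence-polarization binding: 2 μM PCSK9 with 50 nM fluorescent probe in 20 mM HEPES pH 7.5, 150 mM NaCl, 1 mM CaCl2, 0.005% P-20, incubated with test compound overnight in the dark. Anisotropy read; % inhibition relative to DMSO wells and probe-without-PCSK9 wells.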
T1 sequence (Q8NBP7 153-692): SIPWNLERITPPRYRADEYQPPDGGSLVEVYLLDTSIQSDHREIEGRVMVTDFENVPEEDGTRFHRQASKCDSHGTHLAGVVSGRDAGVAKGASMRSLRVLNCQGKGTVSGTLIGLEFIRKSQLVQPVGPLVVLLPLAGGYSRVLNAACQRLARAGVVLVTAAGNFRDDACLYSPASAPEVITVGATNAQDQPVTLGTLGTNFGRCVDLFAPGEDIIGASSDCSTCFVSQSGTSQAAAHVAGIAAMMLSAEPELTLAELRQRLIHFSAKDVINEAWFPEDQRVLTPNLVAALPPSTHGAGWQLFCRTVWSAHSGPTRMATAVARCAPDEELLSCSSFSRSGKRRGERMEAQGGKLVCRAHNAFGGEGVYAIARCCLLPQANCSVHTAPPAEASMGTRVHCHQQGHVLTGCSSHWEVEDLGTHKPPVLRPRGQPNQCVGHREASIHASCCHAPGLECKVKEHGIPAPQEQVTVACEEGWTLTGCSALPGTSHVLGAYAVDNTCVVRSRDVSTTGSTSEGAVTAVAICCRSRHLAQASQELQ

Experiment [2] addresses T2, HEK293 cells stably overexpressing PCSK9 (Homo sapiens, UniProt Q8NBP7).
T2 construct: expressed in transfected cells
As to the kind of experiment: Protein degradation assay (Western Blot/Sally Sue assay). The experiment is classed as cell-based. The note with it: 24 hrs compound treatment, serum free DMEM. The procedure:
Samples were run on the Sally Simple Western system from ProteinSimple (San Jose, Calif.) using default assay conditions. Briefly, 5×10^4 HEK293 cells stably overexpressing PCSK9 were seeded into Collagen I coated 96 well plates and allowed to recover overnight at 37° C. with 5% CO2. After 24 hrs of compound treatment in serum free DMEM cell culture medium, cells were washed with PBS and lysed in 100 ul RIPA buffer (Teknova) supplemented with protease inhibitors and subsequently mixed with fluorescent standards as per manufacturer's specifications, followed by denaturation at 95° C. for 5 minutes. Anti-PCSK9 mAb antibody (Abbomax, Cat. No. 601-650) was used for PCSK9 detection. The reported DC50 values represent the effective concentration of compound to lower PCSK9 protein levels, pro and mature, by 50%.
Background: Immunoblotting shows a protein as a band on a membrane.

Experiment [3] addresses T1, PCSK9. As to the kind of experiment: Differential scanning calorimetry (DSC) assay, direct binding / thermal stabilization of PCSK9. The note with it: Tm(with compound)−Tm(no compound); 2 μM PCSK9, 300 μM test compound. The gist of the method:
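Thermal stabilization of 2 μM PCSK9 with or without 300 μM compound in 25 mM HEPES pH 7.5, 150 mM NaCl, 1 mM CaCl2, 3.75% DMSO. Sample heated 20–80 °C at 200 °C/hr against buffer reference. Protein Tm derived from each thermogram.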

[4] abbreviates: mature PCSK9 protein level lowered by 50%, read-out: PCSK9 DC50 (Mature).
Setting [5] is: pro PCSK9 protein level lowered by 50%, read-out: PCSK9 DC50 (Pro).
Setting [6] is: mature PCSK9 protein level lowered by 50%.
Setting [7] is: pro PCSK9 protein level lowered by 50%.

Take `CC(C)Cc1ccc([C@H](C)C(=O)NCCOCCOCCOCCOc2cc3c(cc2Oc2ccc(-c4ccc(C(=O)O)cc4)c(F)c2)[C@@](C)(CC(=O)Nc2nccs2)NCC3)cc1` [Example 98, 2′-fluoro-4′-(((R)-6-(((S)-14-(4-isobutylphenyl)-13-oxo-3,6,9-trioxa-12-azapentadecyl)oxy)-1-methyl-1-(2-oxo-2-(thiazol-2-ylamino)ethyl)-1,2,3,4-tetrahydroisoquinolin-7-yl)oxy)-[1,1′-biphenyl]-4-carboxylic acid]: the IC50 on PCSK9 [1] was found to be 260 nM. The figures for the DC50 in experiment [2] (setting [4]) and in experiment [2] (setting [5]) were 5070 nM and 6080 nM, respectively.

In the case of `CC(C)C[C@H](NC(=O)[C@@H](O)[C@H](N)Cc1ccccc1)C(=O)NCCOCCOCCOCCOc1cc2c(cc1Oc1ccc(-c3ccc(C(=O)O)cc3)c(F)c1)[C@@](C)(CC(=O)Nc1nccs1)NCC2` [Example 97, 4′-(((R)-6-(((14S,17S,18R)-18-amino-17-hydroxy-14-isobutyl-13,16-dioxo-19-phenyl-3,6,9-trioxa-12,15-diazanonadecyl)oxy)-1-methyl-1-(2-oxo-2-(thiazol-2-ylamino)ethyl)-1,2,3,4-tetrahydroisoquinolin-7-yl)oxy)-2′-fluoro-[1,1′-biphenyl]-4-carboxylic acid], the IC50 on PCSK9 [1] was 130 nM. Besides, the “PCSK9 DC50 (Mature) μM” value in experiment [2] (setting [6]) was “inactive”. Moreover, in experiment [2] (setting [7]), the “PCSK9 DC50 (Pro) μM” value is reported as “Inactive”.

Regarding `COC(=O)c1ccc(-c2ccc(Oc3cc4c(cc3OCCOCCNC(=O)COCC(=O)N[C@H](C(=O)N3C[C@H](O)C[C@H]3C(=O)NCc3ccc(-c5scnc5C)cc3)C(C)(C)C)CCN[C@]4(C)CC(=O)Nc3nccs3)cc2F)cc1` [Example 107, methyl 2′-fluoro-4′-(((R)-6-(((S)-13-((2S,4R)-4-hydroxy-2-((4-(4-methylthiazol-5-yl)benzyl)carbamoyl)pyrrolidine-1-carbonyl)-14,14-dimethyl-7,11-dioxo-3,9-dioxa-6,12-diazapentadecyl)oxy)-1-methyl-1-(2-oxo-2-(thiazol-2-ylamino)ethyl)-1,2,3,4-tetrahydroisoquinolin-7-yl)oxy)-[1,1′-biphenyl]-4-carboxylate], on PCSK9 [1], the IC50 turned out to be 831 nM. In addition, the “PCSK9 DC50 (Mature) μM” value in experiment [2] (setting [6]) was “inactive”. Besides, in experiment [2] (setting [7]), the “PCSK9 DC50 (Pro) μM” value is listed as “Inactive”.

For `C[C@]1(CC(=O)Nc2nccs2)NCCc2cc(OCCOCCOCCOCCNC(=O)CC34CC5CC(CC(C5)C3)C4)c(Oc3ccc(-c4ccc(C(=O)O)cc4)c(F)c3)cc21` [Example 96], at PCSK9 [1], the IC50 is 110 nM. The half-maximal degradation concentration (DC50) was 1050 nM in experiment [2] (setting [4]) and 6550 nM in experiment [2] (setting [5]).

On to `C[C@]1(CC(=O)Nc2nccs2)NCCc2cc(OCCOCCNC(=O)CC34CC5CC(CC(C5)C3)C4)c(Oc3ccc(-c4ccc(C(=O)O)cc4)c(F)c3)cc21` [Example 104, 4′-(((R)-6-(2-(2-(2-((3r,5r,7r)-adamantan-1-yl)acetamido)ethoxy)ethoxy)-1-methyl-1-(2-oxo-2-(thiazol-2-ylamino)ethyl)-1,2,3,4-tetrahydroisoquinolin-7-yl)oxy)-2′-fluoro-[1,1′-biphenyl]-4-carboxylic acid], for which the IC50 on PCSK9 [1] stood at 222 nM. Moreover, the results for the DC50 in experiment [2] (setting [4]) and in experiment [2] (setting [5]) were 7520 nM and 1530 nM, respectively.

Consider `Cc1ncsc1-c1ccc(CNC(=O)[C@@H]2C[C@@H](O)CN2C(=O)[C@@H](NC(=O)COCCOCCOCC(=O)NCCOCCOc2cc3c(cc2Oc2ccc(-c4ccc(C(=O)O)cc4)c(F)c2)[C@@](C)(CC(=O)Nc2nccs2)NCC3)C(C)(C)C)cc1` [Example 103, 2′-fluoro-4′-(((R)-6-(((S)-19-((2S,4R)-4-hydroxy-2-((4-(4-methylthiazol-5-yl)benzyl)carbamoyl)pyrrolidine-1-carbonyl)-20,20-dimethyl-7,17-dioxo-3,9,12,15-tetraoxa-6,18-diazahenicosyl)oxy)-1-methyl-1-(2-oxo-2-(thiazol-2-ylamino)ethyl)-1,2,3,4-tetrahydroisoquinolin-7-yl)oxy)-[1,1′-biphenyl]-4-carboxylic acid], for which the IC50 on PCSK9 [1] amounted to 162 nM. In addition, the “PCSK9 DC50 (Mature) μM” value in experiment [2] (setting [6]) is “inactive”. Moreover, the “PCSK9 DC50 (Pro) μM” value in experiment [2] (setting [7]) is given as “Inactive”.

For `CC(C)(C)OC(=O)/N=C(/NCCC[C@@H](NC(=O)OC(C)(C)C)C(=O)NCCOCCOc1cc2c(cc1Oc1ccc(-c3ccc(C(=O)O)cc3)c(F)c1)[C@@](C)(CC(=O)Nc1nccs1)NCC2)NC(=O)OC(C)(C)C` [Example 106, 4′-(((R)-6-(((R,Z)-6,11-bis((tert-butoxycarbonyl)amino)-2,2-dimethyl-4,12-dioxo-3,16-dioxa-5,7,13-triazaoctadec-5-en-18-yl)oxy)-1-methyl-1-(2-oxo-2-(thiazol-2-ylamino)ethyl)-1,2,3,4-tetrahydroisoquinolin-7-yl)oxy)-2′-fluoro-[1,1′-biphenyl]-4-carboxylic acid], at PCSK9 [1], the IC50 came out at 655 nM. Also, the DC50 amounted to 3420 nM in experiment [2] (setting [4]) and 4820 nM in experiment [2] (setting [5]).

Regarding `C[C@]1(CC(=O)Nc2nccs2)NCCc2cc(OCCOCCOCCNC(=O)CC34CC5CC(CC(C5)C3)C4)c(Oc3ccc(-c4ccc(C(=O)O)cc4)c(F)c3)cc21` [Example 94, 4-(((R)-6-(2-(2-(2-(2-((3r,5r,7r)-adamantan-1-yl)acetamido)ethoxy)ethoxy)ethoxy)-1-methyl-1-(2-oxo-2-(thiazol-2-ylamino)ethyl)-1,2,3,4-tetrahydroisoquinolin-7-yl)oxy)-2′-fluoro-[1,1′-biphenyl]-4-carboxylic acid], the IC50 on PCSK9 [1] was 76.9 nM. Further, the DC50 in experiment [2] (setting [4]) stood at 8520 nM; in experiment [2] (setting [5]) it was 1360 nM.

For the molecule `CC(C)Cc1ccc([C@H](C)C(=O)NCCOCCOCCOc2cc3c(cc2Oc2ccc(-c4ccc(C(=O)O)cc4)c(F)c2)[C@@](C)(CC(=O)Nc2nccs2)NCC3)cc1` [Example 93], the IC50 on PCSK9 [1] was 188 nM and 578 nM. The DC50 in experiment [2] (setting [4]) turned out to be 4240 nM; in experiment [2] (setting [5]), 6180 nM.

With `CC(C)C[C@@H](NC(=O)[C@H](O)[C@@H](N)Cc1ccccc1)C(=O)NCCOCCOc1cc2c(cc1Oc1ccc(-c3ccc(C(=O)O)cc3)c(F)c1)[C@@](C)(CC(=O)Nc1nccs1)NCC2` [Example 100, 4′-(((R)-6-(2-(2-((R)-2-((2R,3S)-3-amino-2-hydroxy-4-phenylbutanamido)-4-methylpentanamido)ethoxy)ethoxy)-1-methyl-1-(2-oxo-2-(thiazol-2-ylamino)ethyl)-1,2,3,4-tetrahydroisoquinolin-7-yl)oxy)-2′-fluoro-[1,1′-biphenyl]-4-carboxylic acid], the IC50 on PCSK9 [1] came to 96.4 nM. In addition, the “PCSK9 DC50 (Mature) μM” value in experiment [2] (setting [6]) was “inactive”. The “PCSK9 DC50 (Pro) μM” value in experiment [2] (setting [7]) is recorded as “Inactive”.

For `CC(C)C[C@H](NC(=O)[C@@H](O)[C@H](N)Cc1ccccc1)C(=O)NCCOCCOCCOc1cc2c(cc1Oc1ccc(-c3ccc(C(=O)O)cc3)c(F)c1)[C@@](C)(CC(=O)Nc1nccs1)NCC2` [Example 95, 4′-(((R)-6-(((11S,14S,15R)-15-amino-14-hydroxy-11-isobutyl-10,13-dioxo-16-phenyl-3,6-dioxa-9,12-diazahexadecyl)oxy)-1-methyl-1-(2-oxo-2-(thiazol-2-ylamino)ethyl)-1,2,3,4-tetrahydroisoquinolin-7-yl)oxy)-2′-fluoro-[1,1′-biphenyl]-4-carboxylic acid], at PCSK9 [1], the IC50 amounted to 107 nM. For the same molecule, in experiment [2] (setting [6]), the “PCSK9 DC50 (Mature) μM” value was “inactive”. In addition, the “PCSK9 DC50 (Pro) μM” value in experiment [2] (setting [7]) is listed as “Inactive”.

For the molecule `COc1cc2c(cc1Oc1ccc(-c3ccc(CC(=O)O)cc3)c(F)c1)[C@@](C)(CC(=O)Nc1nccs1)NCC2` [Example 31, (R)-2-(2′-fluoro-4′-((6-methoxy-1-methyl-1-(2-oxo-2-(thiazol-2-ylamino)ethyl)-1,2,3,4-tetrahydroisoquinolin-7-yl)oxy)-[1,1′-biphenyl]-4-yl)acetic acid], the IC50 on PCSK9 [1] was determined as 522 nM. Besides, the ΔTm at 300 µM on PCSK9 [3] amounted to 5.84 °C.

On to `C[C@]1(CC(=O)Nc2nccs2)NCCc2cc(OCC3CCCO3)c(Oc3ccc(C(=O)O)cc3)cc21` (stereo partly drawn) [Example 67, 4-(((1R)-1-methyl-1-(2-oxo-2-(thiazol-2-ylamino)ethyl)-6-((tetrahydrofuran-2-yl)methoxy)-1,2,3,4-tetrahydroisoquinolin-7-yl)oxy)benzoic acid], for which the IC50 at PCSK9 [1] was determined as 420 nM. On PCSK9 [3], the ΔTm at 300 µM turned out to be 7.31 °C.
